A short description of data set [1]: Simulated intestinal digestion in bile-pancreatic juice (TG prodrug remaining, MG prodrug generated). In kind it is in vitro ADME, rat. The method, then:
(§1) Simulated intestinal digestion
(§2) Bile-pancreatic juice was obtained from the common bile duct of anesthetized rats, which contained bile as well as pancreatic juice as previously described. Then, 20 µL of emulsion was incubated with 180 µL bile-pancreatic juice at 37°C with gentle shaking to simulate intestinal digestion. Samples (20 µL) of the incubation solution were taken at regular intervals (0, 0.08, 0.25, 0.5, 1, 2, 3 h) and added to 180 µL of ACN to analyze the concentration of the TG prodrugs and the monoglyceride derivatives of DTX (MG prodrugs) by HPLC. The solubility of prodrugs in aqueous phase were also determined. […] 20 µL of aqueous phase were collected and the concentration of the TG prodrugs and MG prodrugs were determined as above. The fraction of TG-like prodrugs and MG-like prodrugs partitioning in mix micelle phase (aqueous phase) relative to those in raw digesta were calculated to evaluate the solubility of the prodrugs. At the same time, the particle sizes of mix micelles were measured by Malvern laser particle size analyzer. […]
(§3) In order to study the stability of linkers in circulation, TG prodrugs were incubated with rat plasma supplemented with lipoprotein lipase (LPL, 10000 IU/mL) in which TG prodrugs can be hydrolyzed into MG prodrugs rapidly. […] The concentration of TG, MG prodrugs and free DTX were determined by HPLC. […]

A short description of data set [2]: Partition into mixed micellar phase and mixed micelle size after 3 h digestion. The class given is in vitro ADME. As to conditions: Sprague-Dawley, rat. The method, then:
as §1, §2, §3

A short description of data set [3]: Stability of prodrugs in rat plasma supplemented with lipoprotein lipase. The class given is in vitro ADME. The note with it: 12 h.
A short description of data set [4]: In situ recirculating intestinal perfusion (absorption rate Ka, with or without orlistat). As to conditions: rats.
Procedure: density of 10*10 5 cells per well and cultured for 24h. The cells were washed by PBS
for 3 times and then digested and counted. The cell pellet was resuspended by protein
removal reagent M solution. The cellular GSH concentration were then assayed using
Trace Glutathione Assay Kit (Njjcbio, Nanjing, China).
Sprague–Dawley (SD) rats (180-220g) and BalB/c mic (18-22g) were obtained from
the Laboratory Animal Center of Shenyang Pharmaceutical University (Shenyang,
To evaluate the intestinal permeability of the prodrugs, an in situ recirculating perfusion
study was applied as previously described [5] with slight modifications.
µg/mL using Krebs Ringer’s (KR) buffer solution as the perfusate. Male rats were
fasted for 12 h prior to the experiment and then were anesthetized with an i.p. injection
of urethane (1.0 g/kg). The rats were placed under an infrared lamp to maintain a normal
body temperature. The abdomen was opened along the midline with a 3~4-cm
longitudinal incision. The inlet tube was inserted at upper duodenum and the outlet tube
was inserted at the end of the ileum. […]
was recorded at the same time. […]
at a dosage of 240 mg/kg (i.g.) before the surgery. The dead volume was determined by
air blowing using the peristaltic pump. The absorption rate Ka was calculated as follows: […]
The DTX concentrations in the plasma of all test groups were determined by a validated […]
The test system of another data set is 4T1 cells. Description: MTT cytotoxicity in 4T1 cells. The class given is cell-based.
Another data set concerns KB cells. Description: MTT cytotoxicity in KB cells. The class given is cell-based.
The subject of a further data set is 4T1 xenograft tumors. Description: In vivo antitumor effect (tumor volume, tumor burden, body weight, H&E of organs). Details: species or system female BALB/c mice. As to conditions: 4T1 tumor bearing mice; po, 20 mg kg^−1 equivalent to DTX, every alternate day for 10 days. The method, then:
F௥௘௟ = AUCா௠௨௟௦௜௢௡ ∙Doseௌ௢௟/AUCௌ௢௟/Doseா௠௨௟௦௜௢௡
Fab = AUCp.o. ∙ Dosei.v./AUCi.v./Dosep.o.
Absorption mechanism and biodistribution of TG-mimetic prodrug
The PPa-S-S-TG was synthesized as scheme S2, the PPa-S-S-TG emulsion and its simulated intestinal digestion were implemented in accordance with the step of the TG-like DTX prodrug emulsion. Its reduction-responsibility was verified by incubation PBS with or without DTT. In brief, phosphate buffer solution (pH 7.4) (containing 30% ethanol (v/v)) with or without dithiothreitol (DTT) was used as the release media. The concentration of DTT was fixed at 10 mM. Then, 200 µL of the emulsions (PPa-S-S-TG) was incubated with 20 mL release media (reduction-sensitive or reduction-insensitive) at 37°C. At 0, 3, 12 h, 40 µL samples were taken and added to 160 µL of ACN for analysis. The content change of the PPa-S-S-TG was monitored by HPLC.
The PPa-S-S-TG and the PPa solution (10 mg/kg equivalent to PPa) were administrated to female BALB/c mice bearing the 4T1 cell line. At scheduled times the mice were sacrificed and the GITs, MLNs and tumors were taken out for fluorescence imaging by the Caliper IVIS ® Spectrum in vivo Imaging System. The intestinal tissue of PPa-S-S-TG group was then washed, fixed with 4% paraformaldehyde for 2 h, and dehydrated in 30% sucrose overnight. […]
was used as a control. […] Body weight and tumor volume were recorded every day. […]

Data set [5] is described as follows: Hepatic and renal function analysis. The class given is in vivo, female BALB/c mice. The note with it: mice after treatment. From the text: Gastrointestinal toxicity evaluation
Nine female BALB/c mice were divided into four groups (n=3 each group) and were […]
saline (control) every day. Five days later, the mice were sacrificed and their blood was obtained for hepatic and renal function analysis. The stomach, duodenum, jejunum and ileum were taken and fixed in 4% paraformaldehyde solution for hematoxylin and eosin (H&E) staining. The histological sections were imaged using an optical microscope.
Student's t-test was used to determine significant differences between the two groups.
When p<0.05, there was a significant difference, and very significant differences between two groups were defined as p<0.01.

Where “and” joins values, the source holds several entries; their conditions need not be identical. Identical values can stand only once.

Procedure for KB cells: 4T1 cells were cultured in RPMI 1640 medium with 10% FBS and KB cells were
cultured in high glucose DMEM medium with 10% FBS. All cells were maintained in a humidified atmosphere of 5% CO 2 at 37 °C. All the cell culture plastic product were obtained from Wuxi NEST Biotechnology Co., Ltd.
In vitro cytotoxicity and drug release in tumor cell
investigated in 4T1, KB and L02 cells. In brief, cells were added to 96-wells at a density of 5000 cells per well and cultured for 24 h and then the medium was discarded.
cells were incubated with different concentrations of DTX solution or prodrug
emulsions for 48 h or 72 h and cell viability was determined by MTT assay. The cells without any treatment were utilized as control (n=3 for each group).

Regarding `CCCCCCCCCCCCCCCC(=O)OCC(COC(=O)CCCCCCCCCCCCCCC)OC(=O)C(CCC(=O)O[C@@H](C(=O)O[C@H]1C[C@@]2(O)[C@@H](OC(=O)c3ccccc3)[C@@H]3[C@]4(OC(C)=O)CO[C@@H]4C[C@H](O)[C@@]3(C)C(=O)[C@H](O)C(=C1C)C2(C)C)[C@@H](NC(=O)OC(C)(C)C)c1ccccc1)OC(=O)C(C)(C)C` (stereo partly shown) [DTX‐5C(Piv)‐TG], in data set [1], the “Intestinal digestion (rate) in bile-pancreatic juice” value was “poorest intestinal digestion rate”. The “Amount of MG derivative generated” value in data set [1] (Sprague-Dawley, rat, 3 h) is reported as 74%. Further, in data set [2], the “Partition of TG-like prodrug into the micellar phase” value is given as “about 40.2%”. The DTX released in data set [3] is listed as 10%. Besides, the “Ka, fold increase in comparison with the DTX solution” value in data set [4] turned out to be 1.15 fold.
Take `CCCCCCCCCCCCCCCC(=O)OCC(COC(=O)CCCCCCCCCCCCCCC)OC(=O)CCCC(=O)O[C@@H](C(=O)O[C@H]1C[C@@]2(O)[C@@H](OC(=O)c3ccccc3)[C@@H]3[C@]4(OC(C)=O)CO[C@@H]4C[C@H](O)[C@@]3(C)C(=O)[C@H](O)C(=C1C)C2(C)C)[C@@H](NC(=O)OC(C)(C)C)c1ccccc1` [DTX‐5C‐TG]: the “Cytotoxicity (IC50 values)” value in the data set on 4T1 cells (48 h) worked out at 0.3571 µg/mL; in the data set with 4T1 cells (72 h), 0.1569 µg/mL; with KB cells (48 h), 0.2265 µg/mL; with KB cells (72 h), 0.0882 µg/mL. In the data set on 4T1 xenograft tumors, the Tumor inhibition result is “effective tumor inhibition”. In data set [4], the “Ka, fold increase in comparison with the DTX solution” value is reported as 1.91 fold.
Turning to `CC(=O)O[C@@]12CO[C@@H]1C[C@H](O)[C@@]1(C)C(=O)[C@H](O)C3=C(C)[C@@H](OC(=O)[C@H](O)[C@@H](NC(=O)OC(C)(C)C)c4ccccc4)C[C@@](O)([C@@H](OC(=O)c4ccccc4)[C@H]21)C3(C)C` [DTX i.g.], in data set [5] (AVERAGE of 3 animals), the ALT came out at 41.6037 U/L, the AST is 150.819 U/L, the BUN turned out to be 8.409 mmol/L and the CR stood at 62.3087 µmol/L. In data set [5] (individual animal), the ALT was 57.9809 U/L and 28.6275 U/L and 38.2028 U/L; the AST was 129.269 U/L and 163.103 U/L and 160.084 U/L; the BUN was 8.8262 mmol/L and 7.2013 mmol/L and 9.1982 mmol/L; the CR is 51.2097 µmol/L and 66.2585 µmol/L and 69.4579 µmol/L.

(Values after PMC6918103 (Advanced Science, 2019).)
